Series [1] concerns the target T1, fMet-Leu-Phe receptor (Homo sapiens, UniProt P21462).
T1 sequence (P21462 whole entry): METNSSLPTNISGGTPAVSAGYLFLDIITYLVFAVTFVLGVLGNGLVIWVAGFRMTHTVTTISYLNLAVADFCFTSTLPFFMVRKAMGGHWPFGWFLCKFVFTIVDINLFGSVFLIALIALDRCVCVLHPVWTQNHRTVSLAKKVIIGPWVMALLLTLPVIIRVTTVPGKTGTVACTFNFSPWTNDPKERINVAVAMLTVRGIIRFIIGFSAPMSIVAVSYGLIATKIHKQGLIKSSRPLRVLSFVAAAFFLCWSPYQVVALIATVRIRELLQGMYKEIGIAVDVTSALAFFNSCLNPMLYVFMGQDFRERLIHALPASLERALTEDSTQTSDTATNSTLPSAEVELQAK
Put plainly: Antagonist activity against human FPR1 expressed in human HL-60 cells assessed as inhibition of fMLF-induced calcium mobilization preincubated for 30 mins followed by fMLF addition and measured every 5s for 240s by Fluo4AM dye based scanning fluorimetric analysis. It counts as functional, cell-based.

Series [2] deals with T2, N-formyl peptide receptor 2 (Homo sapiens) (UniProt P25090).
T2 sequence (whole entry): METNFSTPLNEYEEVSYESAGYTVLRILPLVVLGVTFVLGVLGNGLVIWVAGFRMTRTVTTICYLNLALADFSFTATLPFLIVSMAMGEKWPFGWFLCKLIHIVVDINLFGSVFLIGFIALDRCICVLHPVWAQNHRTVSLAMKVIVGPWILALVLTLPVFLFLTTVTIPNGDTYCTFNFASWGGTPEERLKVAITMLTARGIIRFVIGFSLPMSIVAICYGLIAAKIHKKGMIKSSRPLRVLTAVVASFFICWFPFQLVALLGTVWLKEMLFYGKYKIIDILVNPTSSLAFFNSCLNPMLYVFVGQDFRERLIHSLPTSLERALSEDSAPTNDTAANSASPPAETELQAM
Put plainly: Antagonist activity against human FPR2 expressed in human HL-60 cells assessed as inhibition of WKYMVM-induced calcium mobilization preincubated for 10 mins followed by WKYMVM addition and measured every 5s for 240s by Fluo4AM dye based scanning fluorimetric analysis. In kind it is functional, cell-based. Particulars: time 840.0 sec.

Series [3] is described as follows: Metabolic stability of the compound in rat liver microsomes assessed as parent compound remaining at 10 uM preincubated for 10 mins followed by NADPH addition and measured after 30 mins by LC-MS analysis. In kind it is ADME, Microsome. Particulars: time 40 min, read-out: Stability. In general terms: Liver microsomes are a subcellular fraction often used to study metabolism.

In series [4] the test system is AGS. Put plainly: Induction of apoptosis in human AGS cells assessed as viable cells at 5 uM measured after 48 hrs in presence of FPR1 antagonist, fMLF by Muse Annexin V cytofluorimetric analysis (reference value: 87.1%). In kind it is functional. Particulars: read-out: Activity.
The test system of series [5] is NCI-N87. Put plainly: Induction of apoptosis in human NCI-N87 cells assessed as viable cells at 5 uM measured after 48 hrs by Muse Annexin V cytofluorimetric analysis (reference value: 69.9%). Particulars: read-out: Activity. It counts as functional.
Series [6] deals with AGS. Put plainly: Induction of apoptosis in human AGS cells assessed as viable cells at 5 uM measured after 48 hrs by Muse Annexin V cytofluorimetric analysis (reference value: 85.9%). In kind it is functional. Particulars: read-out: Activity.
Series [7] has as its system NCI-N87. Put plainly: Induction of apoptosis in human NCI-N87 cells assessed as viable cells at 5 uM measured after 48 hrs in presence of FPR1 antagonist, fMLF by Muse Annexin V cytofluorimetric analysis (reference value: […]%). Particulars: read-out: Activity. In kind it is functional.
The target in series [8] is T1, fMet-Leu-Phe receptor. Put plainly: Antagonist activity against human FPR1 expressed in human HL-60 cells assessed as inhibition of fMLF-induced calcium mobilization preincubated for 10 mins followed by fMLF addition and measured every 5s for 240s by Fluo4AM dye based scanning fluorimetric analysis. It counts as functional, cell-based. For orientation: A change in cytosolic calcium serves as a functional read-out for many receptors and channels.

The structures appear in SMILES notation. pIC50: −log10 of the molar value. Active and inactive are the calls of the source. The rule behind the calls is not given here.

A word on the pIC50: it is −log10 of the IC50, conventionally taken in molar units.

On to `CCc1cc2c(=O)c(-c3nc4ccccc4n3C)c(C)oc2cc1OC(C)=O`, for which, at fMet-Leu-Phe receptor [1], the pIC50 is 5.85.

With `CCCCCc1cc2c(=O)c(-c3ccccc3OC)c(C)oc2cc1OC(C)=O`, the inhibition entry in series [2] is “inactive”.

For the compound `COc1ccccc1-c1c(C)oc2cc(OC(=O)c3ccco3)ccc2c1=O`, the negative logarithm of the IC50 (pIC50) at fMet-Leu-Phe receptor [1] was 5.72.

As for `Cc1oc2cc(OC(=O)c3ccco3)ccc2c(=O)c1-c1nc2ccccc2n1C`, the pIC50 on fMet-Leu-Phe receptor [1] is 5.51.

Consider `COc1ccccc1-c1c(C(F)(F)F)oc2cc(OC(=O)c3ccco3)ccc2c1=O`, for which the negative-log IC50 (pIC50) on fMet-Leu-Phe receptor [1] was 6.36.

On to `CCCc1cc2c(=O)c(-c3ccccc3OC)c(C)oc2cc1OC(=O)N(C)C`, for which the inhibition result in series [2] is “inactive”.

Regarding `CCCCCCc1cc2c(=O)c(-c3cccc(OC)c3)c(C(F)(F)F)oc2cc1OC(C)=O`, in series [2], the inhibition result is “inactive”.

With `CCCCCCC(=O)Oc1cc2oc(C)c(-c3ccccc3OC)c(=O)c2cc1C`, the remaining at 0.5 h, 10 µM in series [3] was determined as 0%.

Turning to `CCCCCCc1cc2c(=O)c(-c3ccccc3OC)c(C(F)(F)F)oc2cc1OC(C)=O`, in series [3], the remaining at 0.5 h, 10 µM amounted to 0%.

For the compound `CCCCCCc1cc2c(=O)c(-c3nc4ccccc4n3C)c(C)oc2cc1OC(C)=O`, the negative logarithm of the IC50 (pIC50) on fMet-Leu-Phe receptor [1] was 6.51.

In the case of `CCCCCCC(=O)Oc1cc2oc(C)c(-c3cccc(OC)c3)c(=O)c2cc1C`, the inhibition entry in series [2] was “inactive”.

For the compound `CCCCc1cc2c(=O)c(-c3ccccc3OC)c(C)oc2cc1OC(C)=O`, in series [2], the inhibition result was “inactive”.

For the compound `CCCc1cc2c(=O)c(-c3cccc(OC)c3)c(C)oc2cc1OC(C)=O`, the inhibition entry in series [2] was “inactive”.

Regarding `CCCCCCc1cc2c(=O)c(-c3ccccc3OC)c(C)oc2cc1OC(C)=O`, the viability at 5 µM in the series on AGS [4] came to 46.9%; in the series on NCI-N87 [5] it was 45.1%; in the series on AGS [6], 52%; in the series on NCI-N87 [7] it was 45.5%. In addition, the remaining at 0.5 h, 10 µM in series [3] is 0%.

Regarding `CCCCCCc1cc2c(=O)c(-c3ccccc3OC)c(C)oc2cc1OC(=O)N(C)C`, the inhibition result in series [2] is “inactive”. Moreover, the IC50 entry on fMet-Leu-Phe receptor [8] is reported as “Not Active”.

(Values after ChEMBL document CHEMBL5335795, “Development of potent isoflavone-based formyl peptide receptor 1 (FPR1) antagonists and their effects in gastric cancer cell models” (Eur J Med Chem, 2023).)
